# Assay results taken from paper PMC7774954, “Interactomic affinity profiling by holdup assay: Acetylation and distal residues impact the PDZome-binding specificity of PTEN phosphatase” (PLoS ONE, 2020).
# Tested on: 266 human PDZ domains (PDZome)
# Assay: Holdup assay (chromatographic retention, PDZome-binding profile, BI)
# Set-up: key to maximal BI / Max BI / BI: binding intensity: 0.00 = no binding, 1.00 = maximal binding; Log(Kd): unit not given here
# Description: The holdup method is a chromatographic approach in solution developed in our group that allows to measure the binding strength of a peptide, attached to a resin, against a library of domains of a same family. We initially proposed this method to explore the interaction between PBM peptides and the human PDZ domains. Briefly, a soluble cell lysate containing individually overexpressed PDZ domain is incubated until equilibrium with a calibrated amount of streptavidin-resin saturated either with the target biotinylated PBM peptide or with biotin as a reference. The flow-throughs containing the unbound protein fraction are recovered by filtration and loaded on a capillary electrophoresis instrument to quantify the amount of remaining free PDZ. The stronger the steady-state depletion of the PDZ domain in the flow-through as compared to the reference, the stronger the PDZ/PBM binding interaction. The assay is particularly suited to quantitatively evaluate and compare large numbers of interactions. This method delivers, for each PBM/PDZ pair, a "binding intensity" (BI), whose value can in principle range from 0.00 (no binding event detected) to 1.00 (maximal binding event). The approach has been automated and the human PDZ library was recently extended to the complete 266 PDZ domains known in human proteome. […] The high accuracy and efficiency of the holdup assay have been validated previously. Very recently, a manual version of the holdup assay with purified samples and using widespread benchtop equipment has been implemented and has proven to be reliable.
# The 266 PDZ domains that constitute the PDZ library (“PDZome V.2”) used in the present work were produced using constructs with optimized boundaries as described previously. All the genes were fused to Maltose-Binding Protein (MBP) or Thioredoxin (THR) tag often used to facilitate the solubilisation of the over-expressed protein, by cloning them into the pETG41A or pETG20A plasmid, respectively. […] The expressed tag-PDZ concentrations were quantified using capillary gel electrophoresis and cell lysates were diluted to reach approximately 5 μM tag-PDZ before freezing in 96-well plates. A detailed protocol of the PDZ library production, expression and benchmarking can be found in [32]. PDZ domains are named according to their originating protein name followed by the PDZ number (e.g. NHERF1-1 as the first PDZ domain of the NHERF1 protein).
# The holdup assay was performed on a Tecan freedom Evo200 robot with 384-well plates in singlicate for the three 11-mer PTEN variants and the 13-mer PTEN peptide as described in [31, 32]. Briefly, prior to interaction assay, 2.5 μL of streptavidin resin was saturated in each well with 20 μL of biotinylated PBM peptides (42 μM) and then washed twice with an excess of free biotin, while the reference resin was incubated only with biotin. Right before the holdup experiment, the PDZ library was spiked with an internal standard of lysozyme. Then, the biotin- or PBM-saturated resin was incubated, each in a distinct well of a 384-well plate, with complete cell lysates diluted so that the concentration of the tag-PDZ present in the crude extract is adjusted at 4 μM. After a sufficient time to reach complex equilibrium (15 min.), a fast and mild filtration step is performed and the tag-PDZ concentrations were measured by capillary electrophoresis instrument (LabChip GXII, PerkinElmer, Massachusets, USA). Standard markers were used to convert migration time into molecular weight on the LabChip software and inappropriate molecular weight markers were corrected or excluded.
# Holdup data quality check and processing […]
# [1] = PDZ domain PARD3-1, first of two lines so named (r186)
compound,measurement,setting,value
CC[C@H](C)[C@H](NC(=O)[C@H](CCC(N)=O)NC(=O)[C@@H](NC(=O)[C@H](Cc1c[nH]cn1)NC(=O)[C@H](CCC(N)=O)NC(=O)[C@H](CC(=O)O)NC(=O)[C@H](CCC(=O)O)NC(=O)[C@H](CC(=O)O)NC(=O)CCC(=O)NCCCOCCOCCOCCCNC(=O)CCCC[C@@H]1SC[C@@H]2NC(=O)N[C@@H]21)[C@@H](C)O)C(=O)N[C@H](C(=O)N[C@@H](CCCCN)C(=O)N[C@H](C(=O)O)C(C)C)[C@@H](C)O [PTEN_11],BI,PDZ domain MPDZ-2,-0.043
same,BI,PDZ domain MPDZ-3,0.079
same,BI,PDZ domain MPDZ-4,-0.037
same,BI,PDZ domain MPDZ-5,0.085
same,BI,PDZ domain MPDZ-6,-0.029
same,BI,PDZ domain MPDZ-7,0.154
same,BI,PDZ domain MPDZ-8,0.119
same,BI,"PDZ domain MPDZ-9 (gene NHERF2, 2)",-0.075
same,BI,PDZ domain MPP1-1,-0.033
same,BI,PDZ domain MPP2-1,-0.076
same,BI,PDZ domain MPP3-1,0.035
same,BI,PDZ domain MPP4-1,0.041
same,BI,PDZ domain MPP5-1,-0.091
same,BI,PDZ domain MPP6-1,-0.062
same,BI,PDZ domain MPP7-1,0.034
same,BI,PDZ domain NHERF1-2,0.094
same,BI,PDZ domain NHERF3-1,0.153
same,BI,PDZ domain NHERF3-2,0.063
same,BI,PDZ domain NHERF3-3,0.131
same,BI,PDZ domain NHERF3-4,-0.013
same,BI,PDZ domain NHERF4-1,-0.04
same,BI,PDZ domain NHERF4-2,-0.071
same,BI,PDZ domain NHERF4-3,0.06
same,BI,PDZ domain NHERF4-4,-0.01
same,BI,PDZ domain NOS1-1,0.016
same,BI,[1],0.172
same,Log(Kd),[1],3.7949
same,BI,"PDZ domain PARD3-1, second of two lines so named (r187)",0.048
same,BI,PDZ domain PARD3B-1,-0.032
same,BI,PDZ domain PARD3B-2,0.045
same,BI,PDZ domain PARD3B-3,-0.026
same,BI,PDZ domain PARD6G-1,-0.088
same,BI,PDZ domain PDLIM2-1,-0.001
same,BI,PDZ domain PDLIM3-1,-0.059
same,BI,PDZ domain PDLIM4-1,-0.02
same,BI,PDZ domain PDLIM5-1,0.07
same,BI,PDZ domain PDLIM7-1,0.032
same,BI,PDZ domain PDZD2-1,-0.006
same,BI,PDZ domain PDZD2-3,-0.072
same,BI,PDZ domain PDZD2-4,-0.02
same,BI,PDZ domain PDZD2-5,0.028
same,BI,PDZ domain PDZD2-6,0.115
same,BI,PDZ domain PDZD4-1,0.019
same,BI,PDZ domain PDZD7-1,-0.032
same,BI,PDZ domain PDZD7-2,0.087
same,BI,PDZ domain PDZD7-3,0.658
same,BI,PDZ domain PDZD8-1,-0.04
same,BI,PDZ domain PDZD11-1,-0.013
same,BI,PDZ domain PDZRN4-1,0
same,BI,PDZ domain PDZRN4-2,0.005
same,BI,PDZ domain PREX1-1,0.099
same,BI,PDZ domain PREX2-2,-0.021
same,BI,PDZ domain PRX-1,-0.1
same,BI,PDZ domain PSCDBP-1,-0.154
same,BI,PDZ domain PSMD9-1,-0.01
same,BI,PDZ domain PTPN3-1,0.075
same,BI,PDZ domain PTPN4-1,0.017
same,BI,PDZ domain PTPN13-1,0.143
same,BI,PDZ domain PTPN13-5,-0.041
same,BI,PDZ domain RAPGEF2-1,-0.045
same,BI,PDZ domain RHPN2-1,-0.079
same,BI,PDZ domain SCRIB-1,0.062
same,BI,PDZ domain SCRIB-2,-0.183
same,BI,PDZ domain SCRIB-4,0.061
same,BI,PDZ domain SHANK1-1,0.251
same,BI,PDZ domain SHANK2-1,0.071
same,BI,PDZ domain SHANK3-1,0.106
same,BI,PDZ domain SHROOM2-1,0.022
same,BI,PDZ domain SHROOM4-1,-0.001
same,BI,PDZ domain SIPA1L2-1,0.019
same,BI,PDZ domain SNTA1-1,0.18
same,BI,PDZ domain SNTB1-1,0.156
same,BI,PDZ domain SNTG1-1,0.078
same,BI,PDZ domain SNTG2-1,0.056
same,BI,PDZ domain STXB4-1,-0.026
same,BI,PDZ domain SYNJ2BP-1,0.089
same,BI,PDZ domain SYNP2-1,-0.045
same,BI,PDZ domain SYNPO2L-1,-0.053
same,BI,PDZ domain TIAM1-1,0.032
same,BI,PDZ domain TIAM2-1,0.033
same,BI,PDZ domain TJP1-1,0.119
same,BI,PDZ domain TJP1-2,-0.039
same,BI,PDZ domain TJP2-3,0.064
same,BI,PDZ domain TJP3-1,0.015
same,BI,PDZ domain TJP3-2,0.017
same,BI,PDZ domain TX1B3-1,-0.022
same,BI,PDZ domain USH1C-1,-0.104
same,number of PDZ domains identified as potential binders (BI>0.20),"holdup, singlicate, threshold BI>0.20",19 PDZ domains
same,maximal BI,"holdup, singlicate, highest BI in the PDZome profile, BI standard error ~0.07",0.71
same,binding of several PDZ domains (in words),including several ones from MAGI and NHERF,detectably bound
same,Max BI,maximum over PDZome,0.71
